# From ChEMBL document CHEMBL1201862, “PubChem BioAssay data set” (2004)
#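 Cells were grown in 96-well plates and exposed to each compound for 48 hours at five concentrations; endpoints were interpolated linearly between bracketing concentrations, or set to the highest concentration if not reached. Abbreviation: GI50, concentration required for 50% inhibition of growth.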 The source made the active and inactive calls. Rule as the data show it: active = GI50 up to about 1.1 µM and inactive = higher.
# Tests used:
# Assay in all cases: DTP human tumour cell line panel, 48 h
# NCI-H460 = tested on: NCI-H460
# NCI-H23 = tested on: NCI-H23
# SR = tested on: SR
# PC-3 = tested on: PC-3
# OVCAR-3 = tested on: OVCAR-3
# M14 = tested on: M14
# 786-0 = tested on: 786-0
# OVCAR-4 = tested on: OVCAR-4
# NCI/ADR-RES = tested on: NCI/ADR-RES
# MDA-N = tested on: MDA-N
# HL-60 = tested on: HL-60
# Hs-578T = tested on: Hs-578T
# HCT-116 = tested on: HCT-116
# U-251 = tested on: U-251
# UACC-62 = tested on: UACC-62
# IGROV-1 = tested on: IGROV-1
# CCRF-CEM = tested on: CCRF-CEM
# DU-145 = tested on: DU-145
# BT-549 = tested on: BT-549
# COLO 205 = tested on: COLO 205
SMILES,GI50 (NCI-H460),GI50 (NCI-H23),GI50 (SR),GI50 (PC-3),GI50 (OVCAR-3),GI50 (M14),GI50 (786-0),GI50 (OVCAR-4),GI50 (NCI/ADR-RES),GI50 (MDA-N),GI50 (HL-60),GI50 (Hs-578T),GI50 (HCT-116),GI50 (U-251),GI50 (UACC-62),GI50 (IGROV-1),GI50 (CCRF-CEM),GI50 (DU-145),GI50 (BT-549),GI50 (COLO 205)
CC(=O)OCC1=CC2OC(=O)C3=COC(OC4OC(CO)C(O)C(O)C4O)C1C32 (stereo not given),> 10 µM (inactive),> 100 µM (inactive),57 µM (inactive),> 100 µM (inactive),> 100 µM (inactive),> 100 µM (inactive),> 100 µM (inactive),> 100 µM (inactive),> 100 µM (inactive),> 100 µM (inactive),> 100 µM (inactive),> 100 µM (inactive),> 100 µM (inactive),> 100 µM (inactive),> 100 µM (inactive),> 100 µM (inactive),> 100 µM (inactive),> 100 µM (inactive),> 100 µM (inactive),> 100 µM (inactive)
O=[N+]([O-])C1(CO)COC2(OC1)c1ccccc1-c1ccccc12,> 77.4 µM (inactive),> 100 µM (inactive),40.6 µM (inactive),> 74.8 µM (inactive),> 73.5 µM (inactive),54.7 µM (inactive),63.8 µM (inactive),> 100 µM (inactive),> 48.3 µM (inactive),> 64 µM (inactive),21.9 µM (inactive),> 100 µM (inactive),35.3 µM (inactive),> 77.8 µM (inactive),> 100 µM (inactive),> 89.1 µM (inactive),25.2 µM (inactive),39.4 µM (inactive),> 53.6 µM (inactive),40.5 µM (inactive)
C/C(=N\O)c1ccc(Nc2c3ccccc3nc3occc23)cc1,0.2 µM (active),1.36 µM (inactive),0.023 µM (active),0.327 µM (active),0.695 µM (active),0.236 µM (active),0.51 µM (active),0.762 µM (active),0.115 µM (active),0.0847 µM (active),0.154 µM (active),0.352 µM (active),0.185 µM (active),0.333 µM (active),0.228 µM (active),0.231 µM (active),0.184 µM (active),1.05 µM (active),0.366 µM (active),0.156 µM (active)
O=C1OCN(c2ccccc2)C12CCN(Cc1ccccc1)CC2,22.9 µM (inactive),53.5 µM (inactive),34.4 µM (inactive),24.7 µM (inactive),> 10 µM (inactive),18.2 µM (inactive),26.8 µM (inactive),35.8 µM (inactive),50.4 µM (inactive),23.6 µM (inactive),27.8 µM (inactive),23.9 µM (inactive),31.7 µM (inactive),16.9 µM (inactive),18.6 µM (inactive),59.8 µM (inactive),15.5 µM (inactive),66.4 µM (inactive),67.1 µM (inactive),18.8 µM (inactive)
CC(=O)O[C@H]1C(=O)[C@@]2(C)[C@H]([C@H](OC(=O)c3ccncc3)[C@]3(O)C[C@H](OC(=O)[C@H](O)[C@@H](NC(=O)c4ccccc4)c4ccccc4)C(C)=C1C3(C)C)[C@]1(OC(C)=O)CO[C@@H]1C[C@@H]2O,9.14 µM (inactive),12.6 µM (inactive),1.09 µM (active),6.56 µM (inactive),1.25 µM (inactive),7.06 µM (inactive),6.81 µM (inactive),> 25 µM (inactive),> 25 µM (inactive),0.877 µM (active),0.471 µM (active),1.22 µM (inactive),1.1 µM (active),2.34 µM (inactive),2.66 µM (inactive),2.44 µM (inactive),0.875 µM (active),11.6 µM (inactive),14.5 µM (inactive),2.08 µM (inactive)
Cc1cccc(C)c1NC(=O)C(=O)C(c1ccccc1Cl)S(=O)(=O)Cc1ccccc1Cl (stereo not given),> 100 µM (inactive),34.5 µM (inactive),> 100 µM (inactive),> 100 µM (inactive),> 100 µM (inactive),> 100 µM (inactive),27.7 µM (inactive),> 100 µM (inactive),> 100 µM (inactive),> 100 µM (inactive),0.236 µM (active),41.4 µM (inactive),> 82.2 µM (inactive),40.6 µM (inactive),31.7 µM (inactive),> 62.4 µM (inactive),> 100 µM (inactive),> 100 µM (inactive),35.7 µM (inactive),> 100 µM (inactive)
Cc1ccc2sc3ccc(N)cc3c(=O)c2c1,41.3 µM (inactive),81.8 µM (inactive),68.2 µM (inactive),55.1 µM (inactive),32 µM (inactive),90.2 µM (inactive),54.5 µM (inactive),63.5 µM (inactive),53.2 µM (inactive),26.8 µM (inactive),33.7 µM (inactive),47.2 µM (inactive),33.8 µM (inactive),61.2 µM (inactive),51.9 µM (inactive),33.8 µM (inactive),40.3 µM (inactive),53 µM (inactive),51.9 µM (inactive),42.5 µM (inactive)
Clc1cc(OC23CC4CC(CC(C4)C2)C3)nc(Cl)n1,39.6 µM (inactive),58.7 µM (inactive),19.8 µM (inactive),> 100 µM (inactive),39.2 µM (inactive),29.9 µM (inactive),> 100 µM (inactive),40.9 µM (inactive),> 100 µM (inactive),50.6 µM (inactive),10 µM (inactive),22.8 µM (inactive),46.3 µM (inactive),55.8 µM (inactive),52.4 µM (inactive),27.2 µM (inactive),23.6 µM (inactive),55.7 µM (inactive),> 100 µM (inactive),56.6 µM (inactive)
CCOC(=O)c1cc2ncccc2c2ccccc12,> 100 µM (inactive),> 100 µM (inactive),> 100 µM (inactive),> 100 µM (inactive),> 100 µM (inactive),> 100 µM (inactive),> 100 µM (inactive),> 100 µM (inactive),> 100 µM (inactive),> 100 µM (inactive),> 100 µM (inactive),> 100 µM (inactive),> 100 µM (inactive),> 100 µM (inactive),> 100 µM (inactive),> 100 µM (inactive),> 100 µM (inactive),> 100 µM (inactive),> 100 µM (inactive),> 100 µM (inactive)
CC(C)C(O)(C(C)C)C(C)C,> 100 µM (inactive),> 100 µM (inactive),> 100 µM (inactive),> 100 µM (inactive),> 100 µM (inactive),> 100 µM (inactive),> 100 µM (inactive),> 100 µM (inactive),> 100 µM (inactive),> 100 µM (inactive),> 100 µM (inactive),> 100 µM (inactive),> 100 µM (inactive),> 100 µM (inactive),> 100 µM (inactive),> 100 µM (inactive),> 100 µM (inactive),> 100 µM (inactive),> 100 µM (inactive),> 100 µM (inactive)
